Measured values published in patent publication US9872922B2, “Anti-EFNA4 antibody-drug conjugates” (PFIZER, INC., priority 2013, dated 2018).

Assays:
[1] = system: Breast-5 (BR5) triple-negative breast cancer (TNBC) PDX; assay: In vivo efficacy, BR5 TNBC PDX; design: species or system NOD/SCID mice (human tumor PDX); details: for tumor volume ± SEM: 1.5 mg/kg
[2] = system: Breast-31 (BR31) TNBC PDX; assay: In vivo efficacy, BR31 TNBC PDX; design: species or system NOD/SCID mice (human tumor PDX); details: for mean tumor volume: 1.5 mg/kg
[3] = system: Breast-13 (BR13) TNBC PDX; assay: In vivo efficacy, BR13 TNBC PDX; design: species or system NOD/SCID mice (human tumor PDX); details: for tumor volume ± SEM: 1.5 mg/kg
BR64 = assay: In vivo efficacy, BR64 TNBC Claudin-low tumor model; design: species or system mice; details: 1.5 mpk
Text: (§1) In breast and ovarian models, tumor regression was defined as a reduction in mean tumor volume after dosing. TGI=Tumor Growth Inhibition. % TGI=[1−(Mean Tumor Volume of Treated)/(Mean Tumor Volume of Vehicle)]. […] ADC dose levels are listed in mg/kg according to antibody content.

[4] = system: Breast-56 (BR56) TNBC PDX; assay: In vivo efficacy, BR56 TNBC PDX; design: species or system NOD/SCID mice (human tumor PDX); details: for tumor volume ± SEM: 1.5 mg/kg
BR17 = assay: In vivo efficacy, BR17 HER2+ breast tumor model; design: species or system mice; details: 1.5 mpk
Text: as §1

BR25 = assay: In vivo efficacy, BR25 TNBC Claudin-low tumor model; design: species or system mice; details: 1.5 mpk
Text: as §1

[5] = system: Breast-22 (BR22) TNBC PDX; assay: In vivo efficacy, BR22 TNBC PDX; details: for tumor volume ± SEM: 1.5 mg/kg
Text: as §1

[6] = system: Ovarian-39 (OV39) ovarian cancer PDX; assay: In vivo efficacy, OV39 ovarian cancer PDX; design: species or system NOD/SCID mice (human tumor PDX); details: for mean tumor volume: 1.5 mg/kg
[7] = system: Ovarian-44 (OV44) ovarian cancer PDX; assay: In vivo efficacy, OV44 ovarian cancer PDX; design: species or system NOD/SCID mice (human tumor PDX); details: 5 mpk, once a week for 2 cycles
[8] = system: Ovarian-63 (OV63) ovarian cancer PDX; assay: In vivo efficacy, OV63 ovarian cancer PDX; design: species or system NOD/SCID mice (human tumor PDX); mean tumor volume: unit not given beside the values; details: for mean tumor volume: 5.0 mg/kg
human EFNA4 = target: T1, human EFNA4 (Homo sapiens, UniProt P52798); assay: Biacore affinity of anti-EFNA4 antibodies for EFNA4 antigen; assay type: binding; details: Biacore system
T1 sequence (P52798 26-170): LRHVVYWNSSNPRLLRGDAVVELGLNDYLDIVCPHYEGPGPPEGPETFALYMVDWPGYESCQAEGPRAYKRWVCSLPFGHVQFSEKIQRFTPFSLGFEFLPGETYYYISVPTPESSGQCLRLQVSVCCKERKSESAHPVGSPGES
Text: More particularly murine antibodies E5, E15, E22 and E47 were humanized using a computer-aided CDR-grafting method (Abysis Database, UCL Business Pic.) and standard molecular engineering techniques to generate humanized antibodies E5, E15, E22 and E47, hereinafter huE5, huE15, huE22 and huE47, respectively. The human framework regions of the variable regions were selected based on their highest sequence homology to the mouse framework sequence and its canonical structure. For the purposes of the analysis the assignment of amino acids to each of the CDR domains is in accordance with the Kabat et al. numbering.

COc1cccc2c1C(=O)c1c(O)c3c(c(O)c1C2=O)C[C@@](O)(C(=O)CO)C[C@@H]3O[C@H]1C[C@H](N)[C@H](O)[C@H](C)O1 [Doxorubicin, doxorubicin, reference compound]
tumor volume ± SEM ([1]; Day 0): 166 ± 18 mm^3
tumor volume ± SEM ([1]; Day 7): 494 ± 70 mm^3
tumor volume ± SEM ([1]; Day 11): 752 ± 92 mm^3
tumor volume ± SEM ([1]; Day 18): 966 ± 32 mm^3
% TGI ([1]; 1.5 mpk, BR5 PDX): 44% TGI
impact on tumor growth ([1]; in vivo): neither the control ADC nor doxorubicin standard-of-care (SOC) impacted tumor growth
mean tumor volume ([2]; Day 0): 160 ± 11
mean tumor volume ([2]; Day 7): 304 ± 20
mean tumor volume ([2]; Day 14): 458 ± 24
mean tumor volume ([2]; Day 21): 592 ± 56
mean tumor volume ([2]; Day 28): 759 ± 111
% TGI ([2]; 1.5 mpk, BR31 PDX): 30% TGI
impact on tumor growth ([2]; in vivo): neither the control ADC nor doxorubicin SOC impacted tumor growth
tumor volume ± SEM ([3]; Day 0): 167 ± 13 mm^3
tumor volume ± SEM ([3]; Day 7): 178 ± 20 mm^3
tumor volume ± SEM ([3]; Day 22): 322 ± 38 mm^3
tumor volume ± SEM ([3]; Day 14): 227 ± 25 mm^3
tumor volume ± SEM ([3]; Day 28): 326 ± 34 mm^3
% TGI ([3]; 1.5 mpk, BR13): 16% TGI
impact on tumor growth ([3]; in vivo): neither the control ADC nor doxorubicin SOC impacted tumor growth
Regression (TTP, Days) or % TGI (BR64): No activity
tumor volume ± SEM ([4]; Day 0): 141 ± 13 mm^3
tumor volume ± SEM ([4]; Day 4): 182 ± 11 mm^3
tumor volume ± SEM ([4]; Day 11): 267 ± 31 mm^3
tumor volume ± SEM ([4]; Day 18): 318 ± 32 mm^3
tumor volume ± SEM ([4]; Day 25): 374 ± 50 mm^3
% TGI ([4]; 1.5 mpk, BR56 PDX): 49% TGI
impact on tumor growth ([4]; in vivo): neither the control ADC nor doxorubicin SOC impacted tumor growth
% TGI (BR17): 66% TGI
Regression (TTP, Days) or % TGI (BR25): No activity
tumor volume ± SEM ([5]; Day 0): 244 ± 17 mm^3
tumor volume ± SEM ([5]; Day 7): 416 ± 61 mm^3
tumor volume ± SEM ([5]; Day 14): 553 ± 39 mm^3
tumor volume ± SEM ([5]; Day 21): 729 ± 91 mm^3
% TGI ([5]; 1.5 mpk, BR22 PDX): 27% TGI
impact on tumor growth ([5]; in vivo): Neither the control ADC nor doxorubicin SOC impacted tumor growth
mean tumor volume ([6]; Day 0): 186 ± 33
mean tumor volume ([6]; Day 7): 282 ± 50
mean tumor volume ([6]; Day 14): 171 ± 32
mean tumor volume ([6]; Day 17): 122 ± 24
mean tumor volume ([6]; Day 24): 83 ± 11
mean tumor volume ([6]; Day 28): 118 ± 17
mean tumor volume ([6]; Day 35): 361 ± 40
mean tumor volume ([6]; Day 42): 712 ± 97
mean tumor volume ([6]; Day 49): 966 ± 85

N.N.[Cl][Pt][Cl] [Cisplatin, cisplatin, reference compound]
Regression (TTP, Days) [7]: Regression (60) Days
mean tumor volume ([8]; Day 0): 153 ± 22
mean tumor volume ([8]; Day 5): 146 ± 27
mean tumor volume ([8]; Day 18): 198 ± 29
mean tumor volume ([8]; Day 25): 205 ± 36
mean tumor volume ([8]; Day 32): 238 ± 49
mean tumor volume ([8]; Day 39): 221 ± 40
mean tumor volume ([8]; Day 47): 243 ± 42
mean tumor volume ([8]; Day 53): 265 ± 63
mean tumor volume ([8]; Day 60): 296 ± 80
mean tumor volume ([8]; Day 67): 265 ± 82
% TGI ([8]; 5 mpk, once a week for 2 cycles, OV63 PDX): 35% TGI
Regression (TTP, Days) ([6]; 5 mpk, once a week for 2 cycles, OV39): Regression (28) Days

B1: huE5: humanized antibody E5, VH SEQ ID NO: 5, VL SEQ ID NO: 7 (antibody, V domains shown)
VH: EVQLVESGGGLVQPGGSLRLSCAASGFTVTTYGVDWVRQAPGKGLEWLGVIWGGGSTNYNSALKSRFTISRDNSKNTLYLQMNSLRAEDTAVYYCASDWAYWGQGTLVTVSS
VL: DIQMTQSPSSLSASVGDRVTITCRASQNVGTNVAWFQQKPGKAPKSLIHSASYRYSGVPSRFSGSGSGTDFTLTISSLQPEDFATYYCQQYKRYPYTFGGGTKLEIK
affinity for EFNA4 antigen relative to murine counterpart (human EFNA4): slightly lower affinity
